Test results taken from paper PMC11866022, “Long-Chain Cyclic Arylguanidines as Multifunctional Serotonin Receptor Ligands with Antiproliferative Activity” (ACS Omega, 2025).
Values joined by “and” are separate entries in the source; they are usually repeats but may differ in a detail not shown here. Equal values may be shown once.

How the values were obtained:
[1] = calibration standards, assigned values, no reference given; cited from earlier work
[2] = system: 1321N1 astrocytoma cells; assay: Antiproliferative activity (MTS), 1321N1; format: cell-based, human; conditions: Homo sapiens, 1321-N1; MTS assay
Description: (§1) These cell lines were characterized by different mutation profiles, the main one being the variable status of the p53 protein. In detail, U87MG cells have a wild-type p53 protein, while astrocytoma and the rest of GBM cells harbor mutated p53 protein. Additional assays were performed on MCF7 breast cancer and AsPC-1 pancreatic cancer cells. The wide range of tested lines was aimed at screening the anticancer potential of the tested compounds. The first represents one of the most common and the second one of the most aggressive cancers in the world. Comparing the activity of compounds on GBM cells to other types of cancer may reveal their selectivity and usefulness in targeted therapies. The cytotoxicity of the compounds on normal human astrocytes (NHA) and Feline catus astrocyte (PG-4) was determined. Tests on normal lines serve to verify the potential toxicity of the tested compounds on healthy cells. Due to the targeting of CNS tumors, astrocytes were selected as normal lines.
(§2) The detailed procedure is presented in previous publications.[53] […] Cells were cultured in appropriate media, supplemented with FBS, antibiotics, and other supplements, and incubated at 37 °C with 5% CO2. […] Cell viability was assessed using the MTS assay, and the inhibitory concentration (IC50) was calculated using GraphPad Prism 8.0. Each compound was tested in triplicate across multiple experiments.
Supplementary materials - Biological research […]

[3] = molecular target: T1, 5-HT6 (Homo sapiens, UniProt P50406); assay: Radioligand binding assay, 5-HT6 ([3H]-LSD); conditions: HEK293 cell line with human 5-HT6R; 2 nM [3H]-LSD
T1 construct: expressed in transfected cells; host or cells: HEK293
T1 sequence (P50406 whole entry): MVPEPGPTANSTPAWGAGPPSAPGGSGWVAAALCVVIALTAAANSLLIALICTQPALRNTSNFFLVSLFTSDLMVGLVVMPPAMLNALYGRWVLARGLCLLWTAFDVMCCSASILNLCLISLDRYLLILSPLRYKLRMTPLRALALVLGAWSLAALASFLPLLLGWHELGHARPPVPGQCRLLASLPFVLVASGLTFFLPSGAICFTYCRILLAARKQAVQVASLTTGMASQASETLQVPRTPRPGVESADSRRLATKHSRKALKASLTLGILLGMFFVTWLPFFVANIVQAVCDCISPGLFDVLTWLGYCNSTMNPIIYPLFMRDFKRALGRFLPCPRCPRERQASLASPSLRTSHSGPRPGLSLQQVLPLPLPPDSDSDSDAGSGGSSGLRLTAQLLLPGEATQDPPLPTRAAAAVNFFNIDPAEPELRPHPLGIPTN
Description: Ligand affinity for 5-HT6 receptors was subsequently tested with a radioligand binding assay, using the HEK293 cell line with human 5-HT6R, aiming to select compounds with the strongest affinity. Three compounds belonging to 2-naphthalenesulfonamide derivatives of 3,4-dihydroquinazolin-2-amines were obtained (Table 1).
The detailed procedure is presented in previous publications.[53] Assays were performed by incubating for 1 h at 37 °C (room temperature for 5-HT1A) in 200 μL volumes on 96-well plates. The reaction was terminated by rapid filtration using Unifilter plates, and radioactivity on the filters was measured with a PerkinElmer Microbeta plate reader. Radioligands used were:
Eight concentrations (10^–4 to 10^–11 M) were tested in triplicate for each compound. Inhibition constants (Ki) were calculated using the Cheng–Prusoff equation.[54] The results are expressed as the means of at least two independent experiments.

[4] = system: U87MG glioblastoma cells; assay: Antiproliferative activity (MTS), U87MG; format: cell-based, human; conditions: Homo sapiens, U-87 MG; MTS assay
Description: as §1, §2
Supplementary materials - Biological research
B) U87MG glioblastoma multiforme line.
and U87MG glioblastoma multiforme line for C) PP 3; D) PP 6; E) PP 8; F) PP 10; G) PP 11; H) PP

[5] = system: LN-229 glioblastoma cells; assay: Antiproliferative activity (MTS), LN-229; format: cell-based, human; conditions: Homo sapiens, LN-229; MTS assay, 72 h
Description: as §1, §2

[6] = Lipophilicity, chromatographic hydrophobicity index on C18 (Valko protocol); format: physicochemical
Description: (§3) Lipophilicity and affinity for phospholipids for each investigated molecule were assessed. Additionally, selected compounds with the highest biological activities have been characterized by their affinity plasma proteins. All experiments were performed using protocols developed by Valko.[35] These methods facilitated the calculation of chromatographic hydrophobicity indices (CHI) and plasma protein binding percentages (%PPB) in a biochromatographic experiment, with results compared to the reference. A detailed description of the experiments is provided in the Supporting Information (SI), along with the raw data. […] Although high lipophilicity may limit the medical use of the analyzed compounds since they may tend to accumulate excessively in the human body, it is remarkable that several clinically used drugs also have high lipophilicity. […] (Table 5).
(§4) The detailed procedure is presented in previous publications.[53] High-performance liquid chromatography (HPLC) analyses were conducted using the Prominence-1 LC-2030C 3D system (Shimadzu) with a DAD detector, employing three different chromatographic columns with specific stationary phases and mobile phases. The analysis was performed at 30 °C with a flow rate of 1.5 mL/min for IAM and C18 columns, and 0.9 mL/min for the Chiralpak column. Calibration standards for the columns were sourced from various suppliers and dissolved in dimethyl sulfoxide. Detection occurred in the UV range (190–300 nm) with a 5 μL injection volume. Each compound was analyzed in triplicate. Retention times for the tested compounds and calibration standards are provided in the Supporting Information (Tables S1 and S2).

[7] = Affinity to phospholipids, CHI IAM (Valko protocol); format: physicochemical; conditions: IAM column
Description: as §3, §4

[8] = system: MCF7 breast cancer cells; assay: Antiproliferative activity (MTS), MCF7; format: cell-based, human; conditions: Homo sapiens, MCF7; MTS assay, 72 h
Description: as §1, §2

[9] = molecular target: T2, human serum albumin (HSA) (Homo sapiens, UniProt P02768); assay: HSA binding by biochromatography (HSA column); format: in vitro ADME; conditions: HSA column
T2 construct: purchased
T2 sequence (P02768 25-609): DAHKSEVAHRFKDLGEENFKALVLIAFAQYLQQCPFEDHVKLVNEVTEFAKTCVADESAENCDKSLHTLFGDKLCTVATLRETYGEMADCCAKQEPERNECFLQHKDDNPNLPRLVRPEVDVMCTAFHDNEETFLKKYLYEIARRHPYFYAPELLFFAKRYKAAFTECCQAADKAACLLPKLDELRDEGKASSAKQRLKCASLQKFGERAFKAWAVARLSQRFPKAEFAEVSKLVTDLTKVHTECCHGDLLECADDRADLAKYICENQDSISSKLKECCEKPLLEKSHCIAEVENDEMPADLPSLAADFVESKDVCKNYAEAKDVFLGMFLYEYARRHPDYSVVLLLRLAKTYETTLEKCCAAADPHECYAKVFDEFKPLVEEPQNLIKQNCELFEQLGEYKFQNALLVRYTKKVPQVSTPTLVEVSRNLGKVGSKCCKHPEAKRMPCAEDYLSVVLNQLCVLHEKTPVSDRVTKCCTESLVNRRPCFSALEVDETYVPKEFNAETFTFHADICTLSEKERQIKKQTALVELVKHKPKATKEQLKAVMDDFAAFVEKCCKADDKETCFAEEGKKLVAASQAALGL
Description: as §3, §4

[10] = system: U-251 glioblastoma cells; assay: Antiproliferative activity (MTS), U-251; format: cell-based, human; conditions: Homo sapiens, U-251; MTS assay, 72 h
Description: as §1, §2

[11] = system: AsPC-1 pancreatic cancer cells; assay: Antiproliferative activity (MTS), AsPC-1; format: cell-based, human; conditions: Homo sapiens, ASPC1; MTS assay, 72 h
Description: as §1, with “The chosen group of ligands was further examined for their ability to inhibit proliferation across multiple cancer cell lines related to the CNS system (1321N1, U87MG, LN-229, and U-251). These” for “These”
The detailed procedure is presented in previous publications.[53] Briefly, the study utilized various human cancer and normal cell lines, including LN-229 (glioblastoma), MCF7 (breast carcinoma), HepG2 (hepatoma), U-251 (glioblastoma), U87MG (glioblastoma), AsPC-1 (pancreatic adenocarcinoma), and NHA (normal human astrocytes). Cells were cultured in appropriate media, supplemented with FBS, antibiotics, and other supplements, and incubated at 37 °C with 5% CO2. Compounds were dissolved in DMSO, prepared at various concentrations (1–25 μM), and applied to the cells for 72 h. Cell viability was assessed using the MTS assay, and the inhibitory concentration (IC50) was calculated using GraphPad Prism 8.0. Each compound was tested in triplicate across multiple experiments.

[12] = Metabolic stability in mouse liver microsomes; format: in vitro ADME; conditions: MLMs, 120 min
Source text: Moving on to the next parameter, which is metabolism, we determined metabolic stability, using mouse liver microsomes (MLMs). […]
Main metabolic pathways are marked in red.

## CC(=O)Nc1ccccc1 [Acetanilidine]
[1]
  CHI IAM of the calibration set: 11.5

## COc1cccc2c1C(=O)c1c(O)c3c(c(O)c1C2=O)C[C@@](O)(C(=O)CO)C[C@@H]3O[C@H]1C[C@H](N)[C@H](O)[C@H](C)O1 [Doxorubicin, reference compound]
[2]
  IC50: 1.1 µM

## CCCCCCC(=O)c1ccccc1 [Heptanophenone]
[1]
  CHI IAM of the calibration set: 45.7

## CCCCCC(=O)c1ccccc1 [Hexanophenone]
[1]
  CHI IAM of the calibration set: 41.8

## CCCCCCCC(=O)c1ccccc1 [Octanophenone]
[1]
  CHI IAM of the calibration set: 49.4

## O=S(=O)(c1ccc2ccccc2c1)N1CCN(C2=Nc3ccccc3CN2)CC1 [PP 1, 2-[4-(Naphthalene-2-sulfonyl)piperazin-1-yl]-3,4-dihydroquinazoline]
[3]
  Ki: 8.66 ± 2.16 µM

## O=S(=O)(NCCCCNC1=NCc2ccccc2N1)c1ccc2ccccc2c1 [PP 2, N-{4-[(1,4-Dihydroquinazolin-2-yl)amino]butyl}naphthalene-2-sulfonamide]
[3]
  Ki: 0.616 ± 0.154 µM

## O=S(=O)(NCCCCCCNC1=NCc2ccccc2N1)c1ccc2ccccc2c1 [PP 3, N-{6-[(1,4-Dihydroquinazolin-2-yl)amino]hexyl}naphthalene-2-sulfonamide]
[4]
  IC50: 12 ± 0.9 µM
[2]
  IC50: 13.3 ± 0.1 µM
[3]
  Ki: 0.201 ± 0.05 µM

## O=S(=O)(NCCNC1=Nc2ccccc2CN1)c1cccc2ccccc12 [PP 4, N-{2-[(3,4-Dihydroquinazolin-2-yl)amino]ethyl}naphthalene-1-sulfonamide]
[5]
  IC50: > 25 µM
[6]
  CHI C18 pH 2.6: 64.9
  CHI C18 pH 7.4: 79.9
  CHI C18 pH 10.5: 101.9
[7]
  CHI IAM: 50.2
[4]
  IC50: > 25 µM
[2]
  IC50: > 25 µM
[8]
  IC50: > 25 µM
[3]
  Ki: 4.33 ± 1.08 µM
[9]
  %HSA: 94.8%
  logKHSA: 1.18 and 1.2
[10]
  IC50: > 25 µM
[11]
  IC50: > 25 µM

## O=S(=O)(c1cccc2ccccc12)N1CCN(C2=Nc3ccccc3CN2)CC1 [PP 5, 2-[4-(Naphthalene-1-sulfonyl)piperazin-1-yl]-3,4-dihydroquinazoline]
[3]
  Ki: 3.49 ± 0.872 µM

## O=S(=O)(NCCCCNC1=Nc2ccccc2CN1)c1cccc2ccccc12 [PP 7, N-{4-[(3,4-Dihydroquinazolin-2-yl)amino]butyl}naphthalene-1-sulfonamide]
[3]
  Ki: 0.697 ± 0.174 µM

## O=S(=O)(NCCCCCCNC1=Nc2ccccc2CN1)c1cccc2ccccc12 [PP 8, N-{6-[(3,4-Dihydroquinazolin-2-yl)amino]hexyl}naphthalene-1-sulfonamide]
[5]
  IC50: > 25 µM
[4]
  IC50: 24.5 ± 1.4 µM
[2]
  IC50: 18.4 ± 2.9 µM
[8]
  IC50: > 25 µM
[3]
  Ki: 0.098 ± 0.025 µM
[10]
  IC50: > 25 µM
[11]
  IC50: > 25 µM

## CC1NC(NCCNS(=O)(=O)c2cccc3ccccc23)=Nc2ccccc21 (stereo not drawn) [PP 9, N-{2-[(4-Methyl-3,4-dihydroquinazolin-2-yl)amino]ethyl}naphthalene-1-sulfonamide]
[3]
  Ki: 2.42 ± 0.605 µM

## CC1NC(NCCCCCCNS(=O)(=O)c2cccc3ccccc23)=Nc2c(Cl)cc(Cl)cc21 (stereo not drawn) [PP 12, N-{6-[(6,8-Dichloro-4-methyl-3,4-dihydroquinazolin-2-yl)amino]hexyl}naphthalene-1-sulfonamide]
[12]
  metabolic stability, % of remaining: 76.87%
[6]
  CHI C18 pH 2.6: 97.1
  CHI C18 pH 7.4: 111.2
  CHI C18 pH 10.5: 121.8
[7]
  CHI IAM: 59.4
[4]
  IC50: 9.5 ± 0.7 µM
[2]
  IC50: 5.7 ± 0.1 µM
[3]
  Ki: 0.208 ± 0.052 µM
[9]
  %HSA: 99.7%
  logKHSA: 1.9

## O=S(=O)(NCCNc1ncc2ccccc2n1)c1cccc2ccccc12 [PP 14, N-{2-[(Quinazolin-2-yl)amino]ethyl}naphthalene-1-sulfonamide]
[5]
  IC50: > 25 µM
[6]
  CHI C18 pH 2.6: 78.3
  CHI C18 pH 7.4: 86.3
  CHI C18 pH 10.5: 87.1
[7]
  CHI IAM: 37.2
[4]
  IC50: > 25 µM
[2]
  IC50: > 25 µM
[8]
  IC50: > 25 µM
[3]
  Ki: 4.18 ± 1.04 µM
[9]
  %HSA: 95.0%
  logKHSA: 1.2
[10]
  IC50: > 25 µM
[11]
  IC50: > 25 µM

## O=S(=O)(NCCCCCCNc1ncccn1)c1cccc2ccccc12 [PP 16, N-{6-[(Pyrimidin-2-yl)amino]hexyl}naphthalene-1-sulfonamide]
[5]
  IC50: > 25 µM
[8]
  IC50: > 25 µM
[3]
  Ki: 3.1 ± 0.776 µM
[10]
  IC50: > 25 µM
[11]
  IC50: > 25 µM

## c1ccc(CNc2nc3ccccc3[nH]2)cc1 [PP 17, N-Benzyl-1H-1,3-benzimidazol-2-amine]
[3]
  5-HT6 Ki: did not show any affinity
  Ki: 31.9 ± 7.96 µM

## c1ccc(CCNc2nc3ccccc3[nH]2)cc1 [PP 18, N-(2-Phenylethyl)-1H-1,3-benzimidazol-2-amine]
[3]
  5-HT6 Ki: did not show any affinity
  Ki: 19.8 ± 4.95 µM

## c1ccc2c(c1)CNC(NCCc1cccc3ccccc13)=N2 [PP 19, N-[2-(Naphthalen-1-yl)ethyl]-3,4-dihydroquinazolin-2-amine]
[5]
  IC50: > 25 µM
[8]
  IC50: > 25 µM
[3]
  Ki: 1.87 ± 0.46 µM
[10]
  IC50: > 25 µM
[11]
  IC50: > 25 µM

## c1ccc2c(N3CCN(c4nc5ccccc5[nH]4)CC3)cccc2c1 [PP 20, 2-[4-(Naphthalen-1-yl)piperazin-1-yl]-1H-1,3-benzodiazole]
[5]
  IC50: > 25 µM
[8]
  IC50: > 25 µM
[3]
  5-HT6 Ki: did not show any affinity
  Ki: 5.05 ± 1.26 µM
[10]
  IC50: > 25 µM
[11]
  IC50: > 25 µM

## c1ccc2c(c1)CNC(NCCCCCCNc1nsc3ccccc13)=N2 [PP 23, N6-(1,2-Benzothiazol-3-yl)-N1-(3,4-dihydroquinazolin-2-yl)hexane-1,6-diamine]
[3]
  Ki: 0.975 ± 0.244 µM

## CC(=O)Nc1ccc(O)cc1 [Paracetamol]
[1]
  CHI IAM of the calibration set: 2.9
